The text below walks through data of patent publication US12365687B2 (Hoffmann-La Roche Inc., priority 2021, dated 2025).

Test [1] has as its target human GABAA α2β2γ1 receptor (Homo sapiens (Human), UniProt P47869+Q8N1C3). The test can be described thus: Radioligand binding assay for γ1-containing GABAA subtypes, [3H]RO7239181 competition (α2β2γ1). How it is done:
(§1) The affinity of compounds at GABAA γ1 subunit-containing receptors was measured by competition for [^3H]RO7239181 (67.3 Ci/mmol; Roche) binding to membranes from HEK293F cells (ThermoFisher R79007) expressing human (transiently transfected) receptors of composition α5β2γ1, α2β2γ1, α1β2γ1.
(§2) Harvested pellets from HEK293F cells expressing the different GABAA receptor subtypes were resuspended in Mannitol Buffer pH 7.2-7.4 (Mannitol 0.29 M, Triethylamine 10 mM, Acetic acid 10 mM, EDTA 1 mM plus protease inhibitors (20 tablets Complete, Roche Diagnostics Cat. No. 05 056 489 001 per liter)), washed two times and then resuspended at 1:10 to 1:15 dilution in the same buffer. Cell disruption was performed by stirring the suspension in a Parr vessel #4637 at 435 psi for 15 minutes, and then the suspensions were centrifuged at 1000×g for 15 minutes at 4° C. (Beckman Avanti J-HC; rotor JS-4.2). The supernatant (S1) was transferred in a 2 l Schott flask and the pellet (P1) was resuspended with Mannitol Buffer up to 175 ml. The resuspended pellet was transferred into a 250 ml Corning centrifugal beaker and centrifuged at 1500×g for 10 minutes at 4° C. (Beckman Avanti J-HC; rotor JS-4.2). The supernatant (S1) was then transferred in the 2 l Schott flask and the pellet was discarded. The supernatants (S1) were centrifuged in 500 ml Beckman polypropylene centrifugal beaker at 15′000×g for 30 minutes at 4° C. (Beckman Avanti J-20 XP; rotor JLA-10.500). The pellet (P2) was resuspended with Mannitol Buffer 1:1 and frozen at −80° C. The supernatant (S2) was centrifuged in 100 ml Beckman polypropylene centrifugal tubes at 48000×g for 50 minutes at 4° C. (Beckman Avanti J-20 XP; rotor JA-18). The supernatant (S3) was discarded and the pellet (P3) was resuspended with 1:1 Mannitol Buffer. The P2 and P3 protein concentration was determined with the BIORAD Standard assay method with bovine serum albumin as standard and measured on the NANO-Drop 1000. The membrane suspension was aliquots (500 μl per tube) and stored at −80° C. until required.
(§3) Membrane homogenates were resuspended and polytronised (Polytron PT1200E Kinematica AG) in Potassium Phosphate 10 mM, KCl 100 mM binding buffer at pH 7.4 to a final assay concentration determined with a previous experiment.
(§4) Assays were incubated to equilibrium for 1 hour at 4° C. and then, membranes were filtered onto unifilter (96-well white microplate with bonded GF/C filters preincubated 20-50 minutes in 0.3% Polyethylenimine) with a Filtermate 196 harvester (Packard BioScience) and washed 4 times with cold Potassium Phosphate 10 mM pH 7.4, KCl 100 mM binding buffer. After anhydrousing, filter-retained radioactivity was detected by liquid scintillation counting. Ki values were calculated using Excel-Fit (Microsoft) and are the means of two determinations.

In test [2] the target is human GABAA α5β2γ1 receptor (Homo sapiens (Human), UniProt P31644+Q8N1C3). The test can be described thus: Radioligand binding assay for γ1-containing GABAA subtypes, [3H]RO7239181 competition (α5β2γ1). As to the method: as §1, §2, §3, §4
In test [3] the target is α2β2γ1 GABAA receptor subtype (Homo sapiens (Human), UniProt P47869+Q8N1C3). Nature of the test: Two-electrode voltage clamp electrophysiology in Xenopus oocytes expressing GABAA receptors (modulation of GABA EC20 current). To be noted: for Efficacy (GABA)%: % modulation of GABA EC20 = 100*(Fold increase-1), α2β2γ1 oocytes, compound at approx. 30-fold Ki; for Fold increase h-GABA-A α2β2γ1 oocyte @ 30-fold Ki: Xenopus oocytes expressing α2β2γ1, compound at approx. 30-fold its Ki α2β2γ1, GABA EC20 current. The class given is cell-based. As to the method:
Xenopus laevis oocytes at maturation stages V-VI were used for the expression of cloned mRNA encoding GABAA receptor subunits. Oocytes ready for RNA micro-injection were bought from Ecocyte, Castrop-Rauxel, Germany and stored in modified Barth's medium (composition in mM: NaCl 88, KCl 1, NaHCO3 2.4, HEPES 10, MgSO4 0.82, CaNO3 0.33, CaCl2 0.33, pH=7.5) at 20° C. until the experiment.
Oocytes were plated in 96-well plates for microinjection using the Roboinject automated instrument (MultiChannelSystems, Reutlingen, Germany). Approximately 50 nL of an aqueous solution containing the RNA transcripts for the subunits of the desired GABAA receptor subtype was injected into each oocyte. […] Oocytes were kept in modified Barth's medium (composition in mM: NaCl 88, KCl 1, NaHCO3 […], HEPES 10, MgSO4 0.82, CaNO3 0.33, CaCl2 0.33, pH=7.5) at 20° C. until the experiment.
Electrophysiological experiments were performed using the Roboocyte instrument (MultiChannelSystems, Reutlingen, Germany) on days 3 to 5 after the micro-injection of mRNA. During the experiment the oocytes were constantly superfused by a solution containing (in mM) NaCl 90, KCl 1, HEPES 5, MgCl2 1, CaCl2 1 (pH 7.4). Oocytes were impaled by two glass microelectrodes (resistance: 0.5-0.8 MΩ) which were filled with a solution containing KCl 1M+K-acetate 1.5 M and voltage-clamped to −80 mV. The recordings were performed at room temperature using the Roboocyte two-electrode voltage clamp system (Multichannelsystem). After an initial equilibration period of 1.5 min GABA was added for 1.5 min at a concentration evoking approximately 20% of a maximal current response (EC20). After another rest interval of 2.5 min GABA was again added evoking a response of similar amplitude and shape. […] Current traces were recorded at a digitization rate of 10 Hz during and shortly before and after the GABA application.
Each compound and concentration was tested on at least 3 oocytes. Different oocytes were used for different compound concentrations.
For the analysis, the digitized current traces of the first and second GABA response were superimposed and, if necessary, rescaled to equal maximal amplitudes. The ratio between the two responses during the time interval of test compound application was calculated point by point. The extremum of the resulting “ratio trace” was taken as the efficacy (“Fold increase”) of the compound expressed as “% modulation of GABA EC20” (100*(Fold increase-1)).
In general terms: Two-electrode voltage clamp is typically applied to oocytes expressing channels or transporters.

For test [4], the target named is human GABAA α1β3γ2 receptor (Homo sapiens (Human), UniProt P14867+P18507). The test can be described thus: Radioligand binding assay for γ2-containing GABAA subtypes, [3H]Flumazenil competition (α1β3γ2). The following applies: for γ2/γ1 Selectivity Ratio: Ki α1β3γ2 (nM)/Ki α2β2γ1 (nM); for LogSel: Log[Ki α1β3γ2 (nM)/Ki α2β2γ1 (nM)]. As to the method: The affinity of compounds at GABAA γ2 subunit-containing receptors was measured by competition for [^3H]Flumazenil (81.1 Ci/mmol; Roche) binding to HEK293F cells expressing human (transiently transfected) receptors of composition α1β3γ2.
Harvested pellets from HEK293F cells expressing the different GABAA γ2 receptor subtypes were resuspended in Mannitol Buffer pH 7.2-7.4 and processed as described above for the cells expressing the GABAA γ1 subunit-containing receptors.
Assays were incubated to equilibrium for 1 hour at 4° C. and harvested onto GF/C uni-filters (Packard) by filtration using a Packard harvester and washing with ice-cold wash buffer (50 mM Tris; pH 7.5). After anhydrousing, filter-retained radioactivity was detected by liquid scintillation counting. Ki values were calculated using Excel-Fit (Microsoft) and are the means of two determinations.

Where [5] appears, read: Ki h-GABAA α2β2γ1, [3H]RO7239181 competition binding, human GABAA α2β2γ1.
The mark [6] stands for this setting: Ki h-GABAA α2β2γ1, displacement of [3H]RO7239181, membranes of HEK293F cells expressing human receptors, means of two determinations.

Read-outs that look alike come from different tables or passages of the source.

A word on the Ki: it is the equilibrium dissociation constant of an inhibitor or competing ligand from its target.

`COC1CN(C(=O)c2cn3c(n2)CN=C(c2c(F)cccc2F)c2c-3ccc(Cl)c2Cl)C1` [Example 2, (7,8-dichloro-6-(2,6-difluorophenyl)-4H-benzo[f]imidazo[1,2-a][1,4]diazepin-2-yl)(3-methoxyazetidin-1-yl)methanone] registered an inhibitory constant (Ki) in test [1] (setting [5]) of 6.5 nM. The compound also registered a Ki in test [1] (setting [6]) of 6.5 nM. For the same compound, in test [2], the affinity corresponds to a Ki of 1.26 nM. Moreover, in test [3], the “Efficacy (GABA)%” value was 42% and the “Fold increase h-GABA-A α2β2γ1 oocyte @ 30-fold Ki” value is reported as 1.42. In test [4], the affinity corresponds to a Ki of 255 nM, the “γ2/γ1 Selectivity Ratio” value is on record as 39.3 and the LogSel is listed as 1.59.

Regarding `OCc1cn2c(n1)CN=C(c1c(F)cccc1F)c1c-2ccc(Br)c1Cl` [Example 4, (8-bromo-7-chloro-6-(2,6-difluorophenyl)-4H-benzo[f]imidazo[1,2-a][1,4]diazepin-2-yl)methanol], the inhibitory constant (Ki) was 8.8 nM in test [1] (setting [5]), 8.8 nM in test [1] (setting [6]), 1.14 nM in test [2] and 216 nM in test [4]. Moreover, the “Efficacy (GABA)%” value in test [3] is on record as 105%. Also, the “Fold increase h-GABA-A α2β2γ1 oocyte @ 30-fold Ki” value in test [3] is reported as 2.05. The “γ2/γ1 Selectivity Ratio” value in test [4] is 24.4. In addition, in test [4], the LogSel came out at 1.39.

As for `COCc1cn2c(n1)CN=C(c1c(F)cccc1F)c1c-2ccc(Cl)c1Cl` [Example 5, 7,8-dichloro-6-(2,6-difluorophenyl)-2-(methoxymethyl)-4H-benzo[f]imidazo[1,2-a][1,4]diazepine], the affinity in test [1] (setting [5]) corresponds to a Ki of 9.6 nM. In addition, the affinity in test [1] (setting [6]) corresponds to a Ki of 9.6 nM. This compound gave a Ki in test [2] of 1.2 nM. Further, in test [3], the “Efficacy (GABA)%” value was 78% and the “Fold increase h-GABA-A α2β2γ1 oocyte @ 30-fold Ki” value is 1.78. In addition, in test [4], affinity was put at a Ki of 307 nM, the “γ2/γ1 Selectivity Ratio” value stood at 31.9 and the LogSel is 1.50.

As for `CNC(=O)c1nc2n(n1)-c1ccc(Cl)c(Cl)c1C(c1c(F)cccc1F)=NC2` [Example 6, 7,8-dichloro-6-(2,6-difluorophenyl)-N-methyl-4H-[1,2,4]triazolo[1,5-a][1,4]benzodiazepine-2-carboxamide], the affinity in test [1] (setting [5]) corresponds to a Ki of 5.5 nM. In test [1] (setting [6]), this compound registered an inhibition constant (Ki) of 5.5 nM. This compound also had a Ki in test [2] of 0.75 nM. Moreover, in test [3], the “Efficacy (GABA)%” value is 101% and the “Fold increase h-GABA-A α2β2γ1 oocyte @ 30-fold Ki” value was 2.01. Also, in test [4], the affinity, expressed as Ki, was 1440 nM; the “γ2/γ1 Selectivity Ratio” value came to 260.9; the LogSel came to 2.42.

As for `[2H]C([2H])([2H])NC(=O)c1nc2n(n1)-c1ccc(Cl)c(Cl)c1C(c1c(F)cccc1F)=NC2` [Example 7, 7,8-dichloro-6-(2,6-difluorophenyl)-N-(trideuteriomethyl)-4H-[1,2,4]triazolo[1,5-a][1,4]benzodiazepine-2-carboxamide], the Ki in test [1] (setting [5]) was 6 nM. The same compound gave an inhibitory constant (Ki) in test [1] (setting [6]) of 6 nM. The same compound displayed a Ki in test [2] of 0.75 nM. In addition, in test [3], the “Efficacy (GABA)%” value came out at 68% and the “Fold increase h-GABA-A α2β2γ1 oocyte @ 30-fold Ki” value stood at 1.68. Further, in test [4], the Ki stood at 455 nM, the “γ2/γ1 Selectivity Ratio” value is on record as 75.6 and the LogSel worked out at 1.88.

Turning to `O=C(c1nc2n(n1)-c1ccc(Cl)c(Cl)c1C(c1c(F)cccc1F)=NC2)N1CCC1` [Example 8, azetidin-1-yl-[7,8-dichloro-6-(2,6-difluorophenyl)-4H-[1,2,4]triazolo[1,5-a][1,4]benzodiazepin-2-yl]methanone], the inhibition constant (Ki) in test [1] (setting [5]) came out at 8.2 nM. Also, the Ki in test [1] (setting [6]) stood at 8.2 nM. The same compound came in with a Ki in test [2] of 1.08 nM. In test [3], the “Efficacy (GABA)%” value stood at 98% and the “Fold increase h-GABA-A α2β2γ1 oocyte @ 30-fold Ki” value came to 1.98. For the same compound, in test [4], the Ki worked out at 368 nM, the “γ2/γ1 Selectivity Ratio” value is recorded as 44.7 and the LogSel was determined as 1.65.

As to `CN(C)C(=O)c1nc2n(n1)-c1ccc(Cl)c(Cl)c1C(c1c(F)cccc1F)=NC2` [Example 9, 7,8-dichloro-6-(2,6-difluorophenyl)-N,N-dimethyl-4H-[1,2,4]triazolo[1,5-a][1,4]benzodiazepine-2-carboxamide], the inhibitory constant (Ki) in test [1] (Ki h-GABAA α2β2γ1, Table 3, reference compounds) came to 5.5 nM; in test [1] (setting [5]), 5.5 nM; in test [1] (setting [6]), 5.5 nM; in test [2], 1.15 nM; in test [4], 989 nM; in test [4] (read-out: Ki h-GABAA α1β3γ2, Table 3, reference compounds), 989 nM. Also, the “Efficacy (GABA)%” value in test [3] stood at 123%. Besides, in test [3], the “Fold increase h-GABA-A α2β2γ1 oocyte @ 30-fold Ki” value was determined as 2.23. Also, the “γ2/γ1 Selectivity Ratio” value in test [4] and in test [4] (Table 3) was 179.8 throughout. Moreover, the LogSel in test [4] and in test [4] (Table 3) was 2.25 throughout.

Turning to `O=C(NC1COC1)c1nc2n(n1)-c1ccc(Cl)c(Cl)c1C(c1c(F)cccc1F)=NC2` [Example 10, 7,8-dichloro-6-(2,6-difluorophenyl)-N-(oxetan-3-yl)-4H-[1,2,4]triazolo[1,5-a][1,4]benzodiazepine-2-carboxamide], the Ki was 3.1 nM in test [1] (setting [5]), 3.06 nM in test [1] (setting [6]), 0.79 nM in test [2] and 445 nM in test [4]. The “Efficacy (GABA)%” value in test [3] worked out at 70%. Further, in test [3], the “Fold increase h-GABA-A α2β2γ1 oocyte @ 30-fold Ki” value worked out at 1.70. In addition, in test [4], the “γ2/γ1 Selectivity Ratio” value was found to be 145.5. In test [4], this compound yielded a LogSel of 2.16.
